Key:
[1] = test system: K562 human leukemia cell line; assay: K562 Cell Proliferation Assay (MTS); type: cell-based; details: K562 cells, 48 hr incubation, MTS cell viability
Method: K562 human leukemia cell line purchased from Korean cell line bank (KCLB) and were cultured in Roswell Park Memorial Institute (RPMI) 1640 Medium supplemented with 10% fetal bovine serum (FBS) and 1% penicillin-streptomycin in a humidified incubator in an atmosphere of 5% CO2 at 37° C. Cells were seeded in 96-well plates at a density of 2×10^3 cells/well in 100 […] media. Compounds were diluted as two times concentration in 100 μl of media and added to each well. Compounds were 5-fold serially diluted for 6 points and treated from 5 μM to 1.6 nM in K562 cells. After 48 hr incubation, Compound treated cells were analyzed for anti-proliferation assay. Cell viability was investigated using the Cell Titer 96 Aqueous One Solution Reagent. Briefly, 200 μl of media were supplemented with 40 μl of MTS solution, incubated for 4hr, and then the absorbance was recorded at 490 nm with a 96-well plate reader. G150 values were calculated from a series of percent of cell viability at a range of compound concentration. GraphPad Prism 8 software or SigmaPlot 13.0 was used to generate G150 values.

recombinant human c-Kit = biological target: T1, recombinant human c-Kit (Homo sapiens, UniProt P10721); assay: c-Kit Kinase Assay (ADP-Glo); type: biochemical; details: In vitro kinase activity
T1 construct: purchased Signalchem
T1 sequence (P10721 26-976): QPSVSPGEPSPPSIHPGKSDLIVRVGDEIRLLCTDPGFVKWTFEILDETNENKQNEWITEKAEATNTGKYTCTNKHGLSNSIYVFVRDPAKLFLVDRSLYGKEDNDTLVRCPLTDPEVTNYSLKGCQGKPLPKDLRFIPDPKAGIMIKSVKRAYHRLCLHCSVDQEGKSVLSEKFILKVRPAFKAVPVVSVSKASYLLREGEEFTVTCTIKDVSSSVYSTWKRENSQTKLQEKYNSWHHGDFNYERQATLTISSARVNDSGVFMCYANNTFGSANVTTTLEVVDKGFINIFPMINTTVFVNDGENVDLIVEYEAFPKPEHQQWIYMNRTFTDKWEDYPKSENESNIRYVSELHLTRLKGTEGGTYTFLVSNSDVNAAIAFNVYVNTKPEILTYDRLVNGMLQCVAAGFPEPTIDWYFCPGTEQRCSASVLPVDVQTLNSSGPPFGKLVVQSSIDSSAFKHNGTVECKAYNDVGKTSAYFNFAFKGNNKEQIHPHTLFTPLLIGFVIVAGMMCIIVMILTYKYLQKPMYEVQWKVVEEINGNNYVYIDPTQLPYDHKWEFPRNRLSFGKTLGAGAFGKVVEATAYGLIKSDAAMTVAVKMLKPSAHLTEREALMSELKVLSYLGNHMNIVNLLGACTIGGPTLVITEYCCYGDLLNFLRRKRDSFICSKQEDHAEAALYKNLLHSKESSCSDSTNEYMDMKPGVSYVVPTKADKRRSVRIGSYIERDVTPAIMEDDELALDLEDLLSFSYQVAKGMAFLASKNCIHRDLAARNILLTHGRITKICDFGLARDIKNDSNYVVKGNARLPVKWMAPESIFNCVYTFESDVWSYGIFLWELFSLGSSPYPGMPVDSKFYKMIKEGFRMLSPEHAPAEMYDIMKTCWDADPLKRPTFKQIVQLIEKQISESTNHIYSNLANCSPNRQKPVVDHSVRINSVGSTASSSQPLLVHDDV
Method: (§1) ADP-Glo assay kit was purchased from Promega. Magnesium chloride (MgCl2), ethylene glycol-bis(8-aminoethyl ether)-N,N,N′,N′-tetraacetic acid (EGTA), manganese (II) chloride (MnCl2), bovine serum albumin (BSA), 1,4-dithiothreitol (DTT) and dimethyl sulfoxide (DMSO) were purchased from Sigma-Aldrich. HEPES buffer was purchased from Gibco. c-Kit kinase and poly (4:1 Glu, Tyr) peptide were purchased from Signalchem.
(§2) c-Kit kinase activity was measured by Promega's ADP-Glo™ Assay. In this assay, 100ng of recombinant human c-Kit is incubated with 5 μL of compounds (0.5% DMSO), 5 μL of Poly (4:1 Glu, Tyr) peptide (50 ng/μl) and 5 μL of ATP (50 μM) in buffer (50 mM HEPES, pH7.5; 10 mM MgCl2; 1 mM EGTA; 0.05% BSA; 50μM DTT; 2mM MnCl2). The assay was started by incubating the reaction mixture in a 96-well plate at 30° C. for 120-min. After the incubation, 25 μL ADP-Glo reagent was added and the reaction was incubated at room temperature for 40-min to stop the reaction and degrade residual ATP. The ADP product was then converted to ATP by adding 50 μL per well of detection reagent. Luminescence was detected after 30-min room temperature incubation with the Molecular device I3X plate reader. The IC50 values were calculated from a series of percent inhibition values determined at a range of inhibitor concentration using software routines as implemented in the GraphPad Prism 8 software and Sigma Plot 13.0.

[2] = biological target: T2, recombinant human c-Kit (D816V) (Homo sapiens, UniProt P10721, D816V); assay: c-Kit (D816V) Kinase Assay (ADP-Glo); type: biochemical; details: In vitro kinase activity
T2 construct: purchased Signalchem
T2 sequence (P10721 26-976 D816V): as the sequence (P10721 26-976) above, with D791V counted along it
Method: as §1, with “glycol-bis(β-aminoethyl” for “glycol-bis(8-aminoethyl”, “(EGTA),” for “(EGTA), manganese (II) chloride (MnCl2),”, “c-Kit (D816V)” for “c-Kit”
as §2, with “c-Kit (D816V)” for “c-Kit”, “Promega's ADP-GIoTM” for “Promega's ADP-Glo™”, “assay, 2.5ng” for “assay, 100ng”, “ATP (15” for “ATP (50”, “BSA; 50 μM DTT).” for “BSA; 50μM DTT; 2mM MnCl2).”

recombinant human PDGFRα = biological target: T3, recombinant human PDGFRα (Homo sapiens, UniProt P16234); assay: PDGFRα Kinase Assay (ADP-Glo); type: biochemical; details: In vitro kinase activity, read-out: PDGFRa IC50
T3 construct: purchased Signalchem
T3 sequence (P16234 24-1089): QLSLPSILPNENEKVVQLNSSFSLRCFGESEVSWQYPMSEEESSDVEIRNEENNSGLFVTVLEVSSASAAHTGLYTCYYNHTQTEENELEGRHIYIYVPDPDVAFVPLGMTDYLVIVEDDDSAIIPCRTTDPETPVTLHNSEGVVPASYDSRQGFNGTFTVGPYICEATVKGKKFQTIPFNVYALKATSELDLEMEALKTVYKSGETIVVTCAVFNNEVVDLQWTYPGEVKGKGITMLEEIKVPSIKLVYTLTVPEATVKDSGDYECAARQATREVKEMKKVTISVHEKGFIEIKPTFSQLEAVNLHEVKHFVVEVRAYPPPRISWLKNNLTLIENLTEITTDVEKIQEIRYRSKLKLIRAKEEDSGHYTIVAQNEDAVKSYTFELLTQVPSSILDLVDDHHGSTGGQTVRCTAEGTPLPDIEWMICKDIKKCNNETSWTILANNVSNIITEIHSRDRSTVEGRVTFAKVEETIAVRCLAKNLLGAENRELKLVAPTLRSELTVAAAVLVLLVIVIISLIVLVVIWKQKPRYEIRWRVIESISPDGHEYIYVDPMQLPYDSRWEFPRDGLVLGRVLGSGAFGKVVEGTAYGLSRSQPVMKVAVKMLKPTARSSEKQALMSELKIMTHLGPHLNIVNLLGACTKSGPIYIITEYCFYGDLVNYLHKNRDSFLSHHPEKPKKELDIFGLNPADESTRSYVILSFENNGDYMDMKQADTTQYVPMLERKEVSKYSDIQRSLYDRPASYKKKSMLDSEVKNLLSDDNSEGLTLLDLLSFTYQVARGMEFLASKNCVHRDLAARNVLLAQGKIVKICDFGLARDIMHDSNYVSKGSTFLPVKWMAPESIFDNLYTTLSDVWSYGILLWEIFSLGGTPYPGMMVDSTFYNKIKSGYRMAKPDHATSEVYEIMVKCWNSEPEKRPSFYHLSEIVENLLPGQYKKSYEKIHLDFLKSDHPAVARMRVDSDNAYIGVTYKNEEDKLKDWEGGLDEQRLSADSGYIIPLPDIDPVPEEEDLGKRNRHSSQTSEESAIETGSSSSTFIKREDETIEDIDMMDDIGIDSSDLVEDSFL
Method: as §1, with “glycol-bis(p-aminoethyl” for “glycol-bis(8-aminoethyl”, “(EGTA),” for “(EGTA), manganese (II) chloride (MnCl2),”, “PDGFRα Kinase” for “c-Kit kinase”
(§3) PDGFRα kinase activity was measured by Promega's ADP-Glo™ Assay. In this assay, 40ng of recombinant human PDGFRα is incubated with 5 μL of compounds (0.5% DMSO), 5 μL of Poly (4:1 Glu, Tyr) peptide (100 ng/μl) and 5 μL of ATP (25 pM) in buffer (50 mM HEPES, pH7.5; 10 mM MgCl2; 1 mM EGTA; 0.05% BSA; 50 μM DTT). The assay was started by incubating the reaction mixture in a 96-well plate at 30° C. for 60-min. After the incubation, 25 μL ADP-Glo reagent was added and the reaction was incubated at room temperature for 40-min to stop the reaction and degrade residual ATP. The ADP product was then converted to ATP by adding 50 μL per well of detection reagent. Luminescence was detected after 30-min room temperature incubation with the Molecular device I3X plate reader. The IC50 values were calculated from a series of percent inhibition values determined at a range of inhibitor concentration using software routines as implemented in the GraphPad Prism 8 software and Sigma Plot 13.0.

[3] = biological target: T4, recombinant human PDGFRα (D842V) (Homo sapiens, UniProt P16234, D842V); assay: PDGFRα (D842V) Kinase Assay (ADP-Glo); type: biochemical; details: In vitro kinase activity
T4 construct: purchased Signalchem
T4 sequence (P16234 24-1089 D842V): as the sequence (P16234 24-1089) above, with D819V counted along it
Method: ADP-Glo assay kit was purchased from Promega. Magnesium chloride (MgCl2), ethylene glycol-bis(p-aminoethyl ether)-N, N, N′, N′-tetraacetic acid (EGTA), bovine serum albumin (BSA), 1,4-dithiothreitol (DTT) and dimethyl sulfoxide (DMSO) were purchased from Sigma-Aldrich. HEPES buffer was purchased from Gibco. PDGFRα (D842V) Kinase and poly (4:1 Glu, Tyr) peptide were purchased from Signalchem.
as §3, with “PDGFRα (D842V)” for “PDGFRα”, “10 ng” for “40ng”, “([…]” for “(25”, “[…]” for “50 μM”, “120-min.” for “60-min.”

## Cc1c(F)cccc1-c1ccc2nc(NC(=O)[C@@H]3C[C@@H]3F)cn2c1 [Example 1, (1 S,2 S)-2-fluoro-N-(6-(3-fluoro-2-methylphenyl)imidazo[1,2-a]pyridin-2-yl)cyclopropane-1-carboxamide]
[1]
  IC50: 101 to 1000 nM

## Cc1ccc(F)cc1-c1ccc2nc(NC(=O)[C@@H]3C[C@@H]3F)cn2c1 [Example 11, (1 S,2 S)-2-fluoro-N-(6-(5-fluoro-2-methylphenyl)imidazo[1,2-a]pyridin-2-yl)cyclopropane-1-carboxamide]
[1]
  IC50: 101 to 1000 nM

## Cc1ccc(O)cc1-c1ccc2nc(NC(=O)[C@@H]3C[C@@H]3F)cn2c1 [Example 12, (1 S,2 S)-2-fluoro-N-(6-(5-hydroxy-2-methylphenyl)imidazo[1,2-a]pyridin-2-yl)cyclopropane-1-carboxamide]
[1]
  IC50: 10 to 100 nM

## Cc1ccc2[nH]ccc2c1-c1ccc2nc(NC(=O)[C@@H]3C[C@@H]3F)cn2c1 [Example 15, (1 S,2 S)-2-fluoro-N-(6-(5-methyl-1H-indol-4-yl)imidazo[1,2-a]pyridin-2-yl)cyclopropane-1-carboxamide]
[1]
  IC50: 10 to 100 nM

## CNc1ccc(C)c(-c2ccc3nc(NC(=O)[C@@H]4C[C@@H]4F)cn3c2)c1 [Example 24, (1 S,2 S)-2-fluoro-N-(6-(2-methyl-5-(methylamino)phenyl)imidazo[1,2-a]pyridin-2-yl)cyclopropane-1-carboxamide]
[1]
  IC50: 10 to 100 nM

## Cc1ccc(-c2cc[nH]c2)cc1-c1ccc2nc(NC(=O)[C@@H]3C[C@@H]3F)cn2c1 [Example 40, (1 S,2 S)-2-fluoro-N-(6-(2-methyl-5-(1H-pyrrol-3-yl)phenyl)imidazo[1,2-a]pyridin-2-yl)cyclopropane-1-carboxamide]
[1]
  IC50: 10 to 100 nM

## COCc1c(F)cccc1-c1ccc2nc(NC(=O)[C@@H]3C[C@@H]3F)cn2c1 [Example 64, (1 S,2 S)-2-fluoro-N-(6-(3-fluoro-2-(methoxymethyl)phenyl)imidazo[1,2-a]pyridin-2-yl)cyclopropanecarboxamide]
Recombinant human c-Kit
  IC50: > 1000 nM
[2]
  IC50: > 1000 nM
Recombinant human PDGFRα
  IC50: > 1000 nM
[3]
  IC50: 101 to 1000 nM

## O=C(Nc1cn2cc(-c3cccc(F)c3-c3ccco3)ccc2n1)[C@@H]1C[C@@H]1F [Example 65, (1 S,2 S)-2-fluoro-N-(6-(3-fluoro-2-(furan-2-yl)phenyl)imidazo[1,2-a]pyridin-2-yl)cyclopropanecarboxamide]
Recombinant human c-Kit
  IC50: > 1000 nM
[2]
  IC50: > 1000 nM
Recombinant human PDGFRα
  IC50: > 1000 nM
[3]
  IC50: > 1000 nM

## CC(=O)c1c(F)cccc1-c1ccc2nc(NC(=O)[C@@H]3C[C@@H]3F)cn2c1 [Example 68, (1 S,2 S)-N-(6-(2-acetyl-3-fluorophenyl)imidazo[1,2-a]pyridin-2-yl)-2-fluorocyclopropanecarboxamide]
Recombinant human c-Kit
  IC50: > 1000 nM
[2]
  IC50: > 1000 nM
Recombinant human PDGFRα
  IC50: > 1000 nM
[3]
  IC50: > 1000 nM

## Cc1c(F)cccc1-c1ccc2nc(NC(=O)C3CC3)cn2c1 [Example 70, N-(6-(3-fluoro-2-methylphenyl)imidazo[1,2-a]pyridin-2-yl)cyclopropanecarboxamide]
[1]
  IC50: 101 to 1000 nM

## Cc1c(F)cccc1-c1ccc2nc(NC(=O)C3CC3(F)F)cn2c1 (centres unmarked) [Example 77, 2,2-difluoro-N-(6-(3-fluoro-2-methylphenyl)imidazo[1,2-a]pyridin-2-yl)cyclopropanecarboxamide]
[1]
  IC50: 101 to 1000 nM

## CN(C)Cc1c(F)cccc1-c1ccc2nc(NC(=O)[C@@H]3C[C@@H]3F)cn2c1 [Example 84, (1 S,2 S)-N-(6-(2-((dimethylamino)methyl)-3-fluorophenyl)imidazo[1,2-a]pyridin-2-yl)-2-fluorocyclopropanecarboxamide]
Recombinant human c-Kit
  IC50: > 1000 nM
[2]
  IC50: > 1000 nM

## O=C(Nc1cn2cc(-c3cnc4[nH]ccc4c3)ccc2n1)[C@@H]1C[C@@H]1F [Example 85, (1 S,2 S)-N-(6-(1H-pyrrolo[2,3-b]pyridin-5-yl)imidazo[1,2-a]pyridin-2-yl)-2-fluorocyclopropanecarboxamide]
[1]
  IC50: 101 to 1000 nM

## Cc1cc2[nH]ccc2cc1-c1ccc2nc(NC(=O)[C@@H]3C[C@@H]3F)cn2c1 [Example 92, (1 S,2 S)-2-fluoro-N-(6-(6-methyl-1H-indol-5-yl)imidazo[1,2-a]pyridin-2-yl)cyclopropanecarboxamide]
[1]
  IC50: 10 to 100 nM

## Cc1cc2nc[nH]c2cc1-c1ccc2nc(NC(=O)[C@@H]3C[C@@H]3F)cn2c1 [Example 94, (1 S,2 S)-2-fluoro-N-(6-(5-methyl-1H-benzo[d]imidazol-6-yl)imidazo[1,2-a]pyridin-2-yl)cyclopropanecarboxamide]
[1]
  IC50: 101 to 1000 nM

## Cc1cc2ncsc2cc1-c1ccc2nc(NC(=O)[C@@H]3C[C@@H]3F)cn2c1 [Example 103, (1 S,2 S)-2-fluoro-N-(6-(5-methylbenzo[d]thiazol-6-yl)imidazo[1,2-a]pyridin-2-yl)cyclopropanecarboxamide]
[1]
  IC50: 10 to 100 nM
